Results on 16 compounds are retold here after patent publication US20230145835A1, “Modulators of Alpha-4-beta-7 Integrin and MAdCAM” (48HD Biopharma Inc., priority 2021, published 2023).

Numbered stars: 1 amine (or outer) side, 2 acyl side, 3 side chain; on linkers, the order of the positions; unused ones are H or OH. Bridge positions count the residues as written; N and C are the ends. Square brackets hold non-standard residues; d marks the D form. Peptide text beside a SMILES is read from it. ξ: configuration not given here. X3 = O=C(/C=N/OCCCCCCOc1cc(C[*:2])cc(C[*:3])c1)[*:1]; X1 = O=C(C=NOCCCCCCOc1cc(C[*:2])cc(C[*:3])c1)[*:1]; X4 = N=C(N)NCCC[C@@H](CN[*:1])C(=O)[*:2]; hIle(4ξ) = CCC(C)C[C@H](N)C(=O)O; aThr = C[C@H](O)[C@H](N)C(=O)O

Data set [1] is described as follows: Simulated Intestinal Fluid Assay. The note with it: for half-life: simulated gi fluid. As to the method: Studies were carried out in simulated intestinal fluid (SIF) to evaluate the intestinal stability of the peptide molecules of the peptides of the instant disclosure. A Fasted State Simulated Intestinal Fluid (FaSSIF) reagent was prepared according to methods known in the art (including addition of the enzyme pancreatin), to which stock peptide solutions were added, incubated, quenched, and analyzed using LCMS/MS.
Percent remaining at each time point was calculated based on the peak area response ratio of test to compound to internal standard. Half-lives were calculated by fitting to a first-order exponential decay equation using GraphPad.

The target in a further data set is T1, rh-integrin α4β7/LPAM-1 (Homo sapiens, UniProt P13612+P26010).
T1 sequence (P13612 34-977 limits assumed): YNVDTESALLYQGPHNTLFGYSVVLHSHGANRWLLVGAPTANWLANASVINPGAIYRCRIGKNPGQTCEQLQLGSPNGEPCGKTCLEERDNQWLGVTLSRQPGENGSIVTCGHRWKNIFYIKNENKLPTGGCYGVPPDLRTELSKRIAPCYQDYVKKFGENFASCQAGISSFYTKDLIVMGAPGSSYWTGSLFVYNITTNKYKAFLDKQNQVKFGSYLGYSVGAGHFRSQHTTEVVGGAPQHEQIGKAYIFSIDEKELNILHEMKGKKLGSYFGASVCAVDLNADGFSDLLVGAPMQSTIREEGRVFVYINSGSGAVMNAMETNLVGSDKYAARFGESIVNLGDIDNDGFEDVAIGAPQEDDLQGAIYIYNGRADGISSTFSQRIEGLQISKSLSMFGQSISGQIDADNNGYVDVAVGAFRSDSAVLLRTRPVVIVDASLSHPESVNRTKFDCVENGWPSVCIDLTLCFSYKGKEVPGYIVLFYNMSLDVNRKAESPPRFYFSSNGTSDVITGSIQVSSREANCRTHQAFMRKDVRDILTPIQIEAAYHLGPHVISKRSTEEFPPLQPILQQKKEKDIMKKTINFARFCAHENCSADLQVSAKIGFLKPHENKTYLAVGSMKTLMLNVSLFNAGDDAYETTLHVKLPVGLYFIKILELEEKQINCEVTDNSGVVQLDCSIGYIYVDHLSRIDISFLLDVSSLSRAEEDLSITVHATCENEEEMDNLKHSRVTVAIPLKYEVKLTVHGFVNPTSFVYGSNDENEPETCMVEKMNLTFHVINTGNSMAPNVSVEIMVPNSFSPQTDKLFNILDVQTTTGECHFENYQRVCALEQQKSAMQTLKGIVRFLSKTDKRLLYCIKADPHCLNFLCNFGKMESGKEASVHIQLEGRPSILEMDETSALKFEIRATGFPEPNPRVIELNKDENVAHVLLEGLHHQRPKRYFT
T1 sequence (P26010 20-723 limits assumed): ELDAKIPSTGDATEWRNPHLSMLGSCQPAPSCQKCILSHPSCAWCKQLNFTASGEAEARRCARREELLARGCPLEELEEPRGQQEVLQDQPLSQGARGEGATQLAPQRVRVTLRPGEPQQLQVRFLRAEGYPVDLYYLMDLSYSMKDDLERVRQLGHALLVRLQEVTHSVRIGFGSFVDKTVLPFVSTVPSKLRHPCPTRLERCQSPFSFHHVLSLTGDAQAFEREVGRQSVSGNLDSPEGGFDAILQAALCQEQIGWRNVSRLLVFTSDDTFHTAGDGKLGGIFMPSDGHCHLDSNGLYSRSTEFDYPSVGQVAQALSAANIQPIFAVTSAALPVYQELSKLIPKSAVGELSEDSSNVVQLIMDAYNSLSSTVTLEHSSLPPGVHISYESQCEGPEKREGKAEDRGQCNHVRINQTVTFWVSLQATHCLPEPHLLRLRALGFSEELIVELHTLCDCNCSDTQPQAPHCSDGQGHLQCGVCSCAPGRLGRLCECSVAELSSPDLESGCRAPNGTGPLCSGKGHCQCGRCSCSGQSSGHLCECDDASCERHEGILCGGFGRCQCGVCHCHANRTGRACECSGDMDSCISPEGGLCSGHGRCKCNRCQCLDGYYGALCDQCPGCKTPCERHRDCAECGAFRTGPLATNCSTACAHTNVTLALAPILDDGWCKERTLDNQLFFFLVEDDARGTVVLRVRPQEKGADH
The data set is described as follows: α4β7-MadCAM Competition ELISA (Example 4). It counts as binding. To be noted: Table 3 Representative compounds; inhibition of MAdCAM binding to coated α4β7; read-out: IC50. As to the method:
After washing with wash buffer, 200 μL assay buffer was added to each well and incubated for one hour at 28° C. After another wash with wash buffer, 100 μL of a MAdCAM and peptide mixture in assay buffer was added to each well and incubated for one hour at 28° C., followed by washing with wash buffer.
On the technique in general: In an ELISA, binding on a coated surface is turned into a signal by an enzyme label.

A word on the half-life: it is the time needed for the level to fall by half in the phase considered. Regarding `O=C(O)CCCc1ccc(N(CCCl)CCCl)cc1` [Chlorambucil, chlorambucil, reference compound], in data set [1], the half-life is 0.627 h.
In data set [1], `CSCC[C@H](NC(=O)[C@@H](N)CO)C(=O)N[C@H]1CSSC[C@@H](C(=O)O)NC(=O)[C@H](Cc2c[nH]cn2)NC(=O)[C@H](C(C)C)NC(=O)[C@H](CCCCN)NC(=O)[C@H](Cc2ccc(O)cc2)NC(=O)[C@H](CC(C)C)NC(=O)[C@@H]2CCCN2C1=O` [SEQ ID NO. 5] (H-SMCPLYKVHC-OH; disulfide 3-10) had a half-life of 0.393 h.
As to `CSCC[C@@H]1NC(=O)C=NOCCCCCCOc2cc3cc(c2)CSC[C@H](NC1=O)C(=O)N1CCC[C@H]1C(=O)N[C@@H](CC(C)C)C(=O)N[C@@H](Cc1ccc(O)cc1)C(=O)N[C@@H](CCCCN)C(=O)N[C@@H](C(C)C)C(=O)N[C@@H](Cc1c[nH]cn1)C(=O)N[C@H](C(=O)O)CSC3` [SEQ ID NO. 8] (MCPLYKVHC-OH; linker N-2-9 via X1), in data set [1], the half-life is 0.137 h.
For `C[C@@H](O)[C@H](NC(=O)[C@H](CC(=O)O)NC(=O)[C@@H]1CCCN1C(=O)[C@H](Cc1ccc(O)cc1)NC(=O)[C@H](CS)NC(=O)[C@H](CC(=O)O)NC(=O)[C@@H](N)CO)C(=O)N[C@@H](Cc1ccc(O)cc1)C(=O)N[C@@H](Cc1c[nH]cn1)C(=O)N[C@@H](CS)C(=O)O` [SEQ ID NO. 13] (H-SDCYPDTYHC-OH), the Comments entry in data set [1] (FaSSIF, LCMS/MS) was “No peak”.
As for `C[C@@H](O)[C@@H]1NC(=O)[C@H](CC(=O)O)NC(=O)[C@@H]2CCCN2C(=O)[C@H](Cc2ccc(O)cc2)NC(=O)[C@@H](NC(=O)[C@H](CC(=O)O)NC(=O)[C@@H](N)CO)CSSC[C@@H](C(N)=O)NC(=O)[C@H](Cc2c[nH]cn2)NC(=O)[C@H](Cc2ccc(O)cc2)NC1=O` [SEQ ID NO. 14] (H-SDCYPDTYHC-NH2; disulfide 3-10), in data set [1], the half-life is 1.32 h.
Still for that read-out and setting: for `CC(C)C[C@@H]1NC(=O)[C@@H]2CCCN2C(=O)[C@H](Cc2c[nH]c3ccccc23)NC(=O)[C@@H]2CCCN2C(=O)[C@@H]2CSCc3cc(cc(c3)OCCCCCCON=CC(=O)N[C@@H](CCC(=O)O)C(=O)N2)CSC[C@@H](C(=O)O)NC(=O)[C@H](CCC(N)=O)NC(=O)[C@@H]2CCCN2C1=O` [SEQ ID NO. 15] (ECPWPLPQC-OH; linker N-2-9 via X1) the value was 1.07 h; for `C[C@@H](O)[C@@H]1NC(=O)[C@H](CC(=O)O)NC(=O)[C@@H]2CCCN2C(=O)[C@H](Cc2ccc(O)cc2)NC(=O)[C@@H]2CSCc3cc(cc(c3)OCCCCCCON=CC(=O)N[C@@H](CC(=O)O)C(=O)N2)CSC[C@@H](C(=O)O)NC(=O)[C@H](Cc2c[nH]cn2)NC(=O)[C@H](Cc2ccc(O)cc2)NC1=O` [SEQ ID NO. 16] (DCYPDTYHC-OH; linker N-2-9 via X1), 3.45 h.
The same measure, in the same setting: then `N=C(N)NCCC[C@@H]1NC(=O)CNC(=O)[C@H](Cc2ccc(O)cc2)NC(=O)[C@H](Cc2c[nH]c3ccccc23)NC(=O)[C@H](Cc2c[nH]cn2)NC(=O)[C@@H]2CSCc3cc(cc(c3)OCCCCCCON=CC(=O)N[C@@H](CCC(N)=O)C(=O)N2)CSC[C@@H](C(=O)O)NC(=O)[C@H](CO)NC1=O` [SEQ ID NO. 19] (QCHWYGRSC-OH; linker N-2-9 via X1), with more than 8 h.
Regarding `CC(C)C[C@@H]1NC(=O)[C@@H]2CSCc3cc(cc(c3)OCCCCCCON=CC(=O)N[C@@H](CCCCN)C(=O)N2)CSC[C@@H](C(=O)O)NC(=O)[C@H]([C@@H](C)O)NC(=O)[C@H](CCC(N)=O)NC(=O)[C@H](CCC(=O)O)NC(=O)[C@H](Cc2c[nH]c3ccccc23)NC(=O)CNC1=O` [SEQ ID NO. 20] (KCLGWEQTC-OH; linker N-2-9 via X1), the half-life in data set [1] was 1.36 h.
Broadly, the IC50 is the concentration that inhibits the measured activity by half. Regarding `CC(C)C[C@@H]1NC(=O)[C@@H]2CCCN2C(=O)[C@H](Cc2c[nH]c3ccccc23)NC(=O)[C@@H]2CCCN2C(=O)[C@@H]2CSCc3cc(cc(c3)OCCCCCCO/N=C/C(=O)N[C@@H](CCC(=O)O)C(=O)N2)CSC[C@@H](C(N)=O)NC(=O)[C@H](CCC(N)=O)NC(=O)[C@@H]2CCCN2C1=O` [compound 105, TSL6- SECPWPLPQC] (ECPWPLPQC-NH2; linker N-2-9 via X3), the IC50 on rh-integrin α4β7/LPAM-1 came to 341 µM.
Still for that read-out and setting: for `CSCC[C@@H]1NC(=O)[C@H](CCCNC(=N)N)NC(=O)[C@@H]2CSCc3cc(cc(c3)OCCCCCCO/N=C/C(=O)N[C@@H]([C@H](C)O)C(=O)N2)CSC[C@@H](C(N)=O)NC(=O)[C@H](CC(=O)O)NC(=O)[C@H](CCC(N)=O)NC(=O)[C@H](Cc2ccccc2)NC(=O)[C@H](CC(=O)O)NC1=O` [compound 106, TSL6- STCRMDFQDC] ([aThr]CRMDFQDC-NH2; linker N-2-9 via X3) the value was 499 µM; for `CCC(C)C[C@@H]1NC(=O)[C@H](CC(=O)O)NC(=O)[C@H](CC(C)C)NC(=O)[C@H](CCCCN)NC(=O)[C@@H]2CSCc3cc(cc(c3)OCCCCCCO/N=C/C(=O)N[C@@H](Cc3c[nH]cn3)C(=O)N2)CSC[C@@H](C(N)=O)NC(=O)[C@H](CC(C)C)NC(=O)[C@H](Cc2c[nH]c3ccccc23)NC1=O` (stereo partly shown) [compound 107, TSL6- SHCKLDIWVC] (HCKLD[hIle(4ξ)]WLC-NH2; linker N-2-9 via X3), more than 500 µM; for `CC(C)C[C@@H]1NC(=O)[C@@H]2CCCN2C(=O)[C@@H]2CSCc3cc(cc(c3)OCCCCCCO/N=C/C(=O)N[C@@H](CCCCN)C(=O)N2)CSC[C@@H](C(N)=O)NC(=O)[C@H](CCC(=O)O)NC(=O)[C@H](Cc2ccc(O)cc2)NC(=O)[C@@H]2CCCN2C(=O)[C@H]([C@@H](C)O)NC(=O)[C@H](C)NC1=O` [compound 108, TSL6- SKCPLATPYEC] (KCPLATPYEC-NH2; linker N-2-10 via X3), more than 500 µM.
On to `C[C@@H]1NC(=O)[C@@H]2CCCN2C(=O)[C@@H]2CSCc3cc(cc(c3)OCCCCCCO/N=C/C(=O)N[C@@H](CCCCN)C(=O)N2)CSC[C@@H](C(N)=O)NC(=O)[C@H](CCC(=O)O)NC(=O)[C@H](Cc2ccc(O)cc2)NC(=O)[C@@H]2CCCN2C(=O)[C@H]([C@@H](C)O)NC(=O)[C@H](CC(=O)O)NC1=O` [compound 109, TSL- 6SKCPADTPYEC] (KCPADTPYEC-NH2; linker N-2-10 via X3), for which the IC50 at rh-integrin α4β7/LPAM-1 was more than 500 µM.
On the same count and under the same terms, then `CC[C@H](C)[C@@H]1NC(=O)[C@H](C)NC(=O)[C@H](CCSC)NC(=O)[C@@H]2CCCN2C(=O)[C@@H]2CSCc3cc(cc(c3)OCCCCCCO/N=C/C(=O)N[C@@H](CCC(N)=O)C(=O)N2)CSC[C@@H](C(N)=O)NC(=O)[C@H]([C@@H](C)O)NC(=O)[C@@H]2CCCN2C1=O` [compound 110, TSL6- SQCPMAIPTC] (QCPMAIPTC-NH2; linker N-2-9 via X3), with more than 500 µM; and `N=C(N)NCCC[C@H]1CNC(=O)CNC(=O)[C@H](Cc2ccc(O)cc2)NC(=O)[C@H](Cc2c[nH]c3ccccc23)NC(=O)[C@H](Cc2c[nH]cn2)NC(=O)[C@@H]2CSCc3cc(cc(c3)OCCCCCCO/N=C/C(=O)N[C@@H](CCC(N)=O)C(=O)N2)CSC[C@@H](C(N)=O)NC(=O)[C@@H](CO)NC1=O` [compound 111, TSL6- SQCHWYGRSC] (QCHWYG[X4][dS]C-NH2; linker N-2-9 via X3), with more than 500 µM.
